Experimental data reported in US6638933B2, “Bicyclic imidazo-3-yl-amine derivatives” (Gruenenthal GmbH, priority 1999, dated 2003).

System: phenylquinone-induced writhing in mice
Assay: Analgesia test in the writhing test in mice (phenylquinone-induced writhing)
Assay type: in vivo
Conditions: male NMRI mice, phenylquinone i.p. ten minutes after substance
Method: Analgesia Test in the Writhing Test in Mice
The analgesic activity was investigated in the phenylquinone-induced writhing in mice (modified according to I. C. Hendershot, J. Forsaith, J. Pharmacol. Exp. Ther. 125, 237-240 (1959)). Male NMRI mice weighing 25-30 g were used. Groups of 10 animals per substance dose received 0.3 ml/mouse of a 0.02% aqueous solution of phenylquinone (phenylbenzoquinone, Sigma, Deisenhofen; solution prepared with the addition of 5% ethanol and storage in a water-bath at 45° C.) administered intraperitoneally ten minutes after intravenous or subcutaneous administration of the test substances. The animals were placed individually in observation cages. The number of pain-induced extension movements (so-called writhing reactions=straightening of the body with stretching out of the hind extremities) 5-20 minutes after administration of the phenylquinone was counted by means of a push-button counter. Animals which receive only physiological saline solution were also run as a control. The substances were tested in the standard dosage of 10 mg/kg intravenously or 21.5 mg/kg subcutaneously. The percentage inhibition (% inhibition) of the writhing reaction by a substance was calculated in accordance with the following equation: [formula]

Row | SMILES | % inhibition of the writhing reaction at 10 mg/kg intravenously (writhing counted 5-20 minutes) | also measured
1 | CC(C)(C)Nc1c(-c2cccs2)nc2ccccn12 [Example 23, tert-Butyl-(2-thiophen-2-yl-imidazo[1,2-a]pyridin-3-yl)-amine] | 62% | –
2 | CC(C)(C)Nc1c(-c2ccccn2)nc2ccccn12 [Example 22, tert-Butyl-(2-pyridin-2-yl-imidazo[1,2-a]pyridin-3-yl)-amine] | 53% | –
3 | c1coc(-c2nc3ccccn3c2NC2CCCCC2)c1 [Example 20, Cyclohexyl-(2-furan-2-yl-imidazo[1,2-a]pyridin-3-yl)-amine] | 43% | –
4 | CCOP(=O)(CNc1c(-c2ccccc2)nc2ccccn12)OCC [Example 12, [(2-Phenyl-imidazo[1,2-a]pyridin-3-ylamino)-methyl]-phosphonic acid diethyl ester] | 90% | –
5 | CC(C)(C)Nc1c(C(C)(C)C)nc2ccccn12 [Example 13, tert-Butyl-(2-tert-butyl-imidazo[1,2-a]pyridin-3-yl)-amine] | – | % inhibition of the writhing reaction, intravenously, at 2.15 mg/kg (2.15 mg/kg (stated in cell) in the intravenous column): 86 at 2.15 mg/kg %
6 | CC(C)(C)Nc1c(-c2cccnc2)nc2ccccn12 [Example 21, tert-Butyl-(2-pyridin-3-yl-imidazo[1,2-a]pyridin-3-yl)-amine] | – | % inhibition of the writhing reaction at 21.5 mg/kg subcutaneously (21.5 mg/kg subcutaneously, writhing counted 5-20 minutes): 80%
7 | Cc1nc2ccccn2c1NC1CCCCC1 [Example 24, Cyclohexyl-(2-methyl-imidazo[1,2-a]pyridin-3-yl)-amine] | 56% | –
